Each structure is given as a SMILES string.

One assay has as its system D. immitis microfilariae. Kind of assay: Dog heart worm microfilariae motility assay. Format: cell-based. The settings on record: Dirofilaria immitis, read-out: EC50 (motility inhibition).
For a further assay, the system named is H. contortus larvae. Kind of assay: H. contortus Larval Development Assay (Hc LDA). The settings on record: Haemonchus contortus, read-out: EC50 (motility inhibition).

Experimental for H. contortus larvae: Ruminant Gastrointestinal (H. contortus Larval Development Assay (Hc LDA)):
H.c. eggs isolated from lamb fecal matter are allowed to hatch overnight. Test compounds are diluted in DMSO and added to a 96-well plate containing appropriate media. H.c. larvae are added to each well and plates are incubated for the desired time(s). Motility is assessed using an LCD camera imaging system. Percent motility inhibition values are generated relative to the average of the DMSO-only wells.

As to `CON(C)c1c(C(=O)NN2CCOc3ccccc32)cnc2c(-c3cc(F)cc(F)c3F)nccc12` [Example 2.5, N-(2,3-dihydro-1,4-benzoxazin-4-yl)-4-[methoxy(methyl)amino]-8-(2,3,5-trifluorophenyl)-1,7-naphthyridine-3-carboxamide], the EC50 with D. immitis microfilariae was less than 0.1 µg/mL; in the assay on H. contortus larvae, less than 1 µg/mL.
As to `O=C(NN1CCOc2ccccc21)c1cnc2c(-c3cc(F)c(F)cc3F)cccc2c1N1CCOCC1` [Example 5.16, N-(2,3-dihydro-1,4-benzoxazin-4-yl)-4-morpholino-8-(2,4,5-trifluorophenyl)quinoline-3-carboxamide], the half-maximal effective concentration (EC50) in the assay on D. immitis microfilariae is less than 0.1 µg/mL; with H. contortus larvae, less than 1 µg/mL.
The corresponding values for `O=C(NN1CCOc2ccccc21)c1cnc2c(-c3cc(Cl)cc(F)c3F)cccc2c1N1CCOCC1` [Example 5.19, 8-(5-chloro-2,3-difluoro-phenyl)-N-(2,3-dihydro-1,4-benzoxazin-4-yl)-4-morpholino-quinoline-3-carboxamide] are less than 0.1 µg/mL and less than 1 µg/mL.
For the compound `O=C(NN1CCOc2ccccc21)c1cnc2c(-c3cc(Cl)cc(Cl)c3)c(F)ccc2c1N1CCOCC1` [Example 5.7, 8-(3,5-dichlorophenyl)-N-(2,3-dihydro-1,4-benzoxazin-4-yl)-7-fluoro-4-morpholino-quinoline-3-carboxamide], the EC50 is less than 0.1 µg/mL in the assay with D. immitis microfilariae and less than 1 µg/mL in the assay on H. contortus larvae.
In the same order, the values of `O=C(NN1CCOc2ccccc21)c1cnc2c(-c3cc(F)cc(F)c3F)cccc2c1N1CCS(=O)(=O)CC1` [Example 5.15, N-(2,3-dihydro-1,4-benzoxazin-4-yl)-4-(1,1-dioxo-1,4-thiazinan-4-yl)-8-(2,3,5-trifluorophenyl)quinoline-3-carboxamide] are less than 0.1 µg/mL and less than 1 µg/mL.
The corresponding values for `CN(C)c1c(C(=O)NN2CCOc3ccccc32)cnc2c(-c3cc(Cl)cc(Cl)c3)cccc12` [Example 5.1, 8-(3,5-dichlorophenyl)-N-(2,3-dihydro-4H-benzo[b][1,4]oxazin-4-yl)-4-(dimethylamino)quinoline-3-carboxamide] are less than 0.1 µg/mL and less than 1 µg/mL.
The corresponding values for `O=C(NN1CCOc2ccccc21)c1cnc2c(-c3cc(F)cc(F)c3F)c(F)ccc2c1N1CCOCC1` [Example 5.4, N-(2,3-dihydro-1,4-benzoxazin-4-yl)-7-fluoro-4-morpholino-8-(2,3,5-trifluorophenyl)quinoline-3-carboxamide] are less than 0.1 µg/mL and less than 1 µg/mL.
For `O=C(NN1CCOc2ccccc21)c1cnc2c(-c3cc(F)cc(F)c3F)ccnc2c1N1CCOCC1` [Example 3.4, N-(2,3-dihydro-1,4-benzoxazin-4-yl)-4-morpholino-8-(2,3,5-trifluorophenyl)-1,5-naphthyridine-3-carboxamide], the EC50 is less than 0.1 µg/mL with D. immitis microfilariae and less than 1 µg/mL in the assay with H. contortus larvae.
In the same order, the values of `O=C(NN1CCOc2ccccc21)c1cnc2c(-c3cc(F)cc(F)c3F)nccc2c1N1CCOCC1` [Example 2.4, N-(2,3-dihydro-1,4-benzoxazin-4-yl)-4-morpholino-8-(2,3,5-trifluorophenyl)-1,7-naphthyridine-3-carboxamide] are less than 0.1 µg/mL and less than 1 µg/mL.
The corresponding values for `O=C(NN1CCOc2ccccc21)c1cnc2c(-c3cc(Cl)cc(Cl)c3)ccnc2c1N1CCOCC1` [Example 3.3, 8-(3,5-dichlorophenyl)-N-(2,3-dihydro-1,4-benzoxazin-4-yl)-4-morpholino-1,5-naphthyridine-3-carboxamide] are less than 0.1 µg/mL and less than 1 µg/mL.
For the compound `O=C(NN1CCc2ccccc21)c1cnc2c(-c3cc(F)cc(F)c3F)cccc2c1N1CCOCC1` [Example 5.24, N-indolin-1-yl-4-morpholino-8-(2,3,5-trifluorophenyl)quinoline-3-carboxamide], the concentration for a half-maximal effect (EC50) in the assay on D. immitis microfilariae was less than 0.1 µg/mL; in the assay with H. contortus larvae, less than 1 µg/mL.
For the compound `CN(C)c1c(C(=O)NN2CCOc3ccccc32)cnc2c(-c3cccc(Cl)c3Cl)ccnc12` [Example 3.2, 8-(2,3-dichlorophenyl)-N-(2,3-dihydro-1,4-benzoxazin-4-yl)-4-(dimethylamino)-1,5-naphthyridine-3-carboxamide], the values for the concentration giving a half-maximal response (EC50) in the assay on D. immitis microfilariae and with H. contortus larvae were less than 0.1 µg/mL and less than 1 µg/mL, respectively.
Consider `O=C(NN1CCOc2ccccc21)c1cnc2c(-c3cncc(Cl)c3Cl)cccc2c1N1CCOCC1` [Example 5.18, 8-(4,5-dichloro-3-pyridyl)-N-(2,3-dihydro-1,4-benzoxazin-4-yl)-4-morpholino-quinoline-3-carboxamide], for which the half-maximal effective concentration (EC50) is less than 0.1 µg/mL with D. immitis microfilariae and less than 1 µg/mL in the assay with H. contortus larvae.
As to `O=C(NN1CCOc2ccccc21)c1cnc2c(-c3cccc(Cl)c3Cl)nccc2c1N1CCOCC1` [Example 2.7, N-(2,3-dihydro-1,4-benzoxazin-4-yl)-4-morpholino-8-(2,3-dichlorophenyl)-1,7-naphthyridine-3-carboxamide], the half-maximal effective concentration (EC50) with D. immitis microfilariae was less than 0.1 µg/mL.
With `CN(C)c1c(C(=O)NN2CCOc3ccccc32)cnc2c(-c3cc(Cl)cc(Cl)c3)ccnc12` [Example 3.1, 8-(3,5-dichlorophenyl)-N-(2,3-dihydro-1,4-benzoxazin-4-yl)-4-(dimethylamino)-1,5-naphthyridine-3-carboxamide], the EC50 in the assay on D. immitis microfilariae is less than 0.1 µg/mL; in the assay on H. contortus larvae it was less than 1 µg/mL.
For the compound `O=C(NN1CCOc2ccccc21)c1cnc2c(-c3cccc(Cl)c3Cl)cccc2c1N1CCOCC1` [Example 5.2, 8-(2,3-dichlorophenyl)-N-(2,3-dihydro-1,4-benzoxazin-4-yl)-4-morpholino-quinoline-3-carboxamide], the EC50 was less than 0.1 µg/mL in the assay with D. immitis microfilariae and less than 1 µg/mL with H. contortus larvae.
The corresponding values for `O=C(NN1CCOc2ccccc21)c1cnc2c(-c3cc(Cl)nc(C(F)(F)F)c3)cccc2c1N1CCOCC1` [Example 5.11, 8-[2-chloro-6-(trifluoromethyl)-4-pyridyl]-N-(2,3-dihydro-1,4-benzoxazin-4-yl)-4-morpholino-quinoline-3-carboxamide] are less than 0.1 µg/mL and less than 1 µg/mL.
As to `O=C(NN1CCOc2ccccc21)c1cnc2c(-c3cc(Cl)cc(C(F)(F)F)c3)nccc2c1N1CCOCC1` [Example 2.6, 8-[3-chloro-5-(trifluoromethyl)phenyl]-N-(2,3-dihydro-1,4-benzoxazin-4-yl)-4-morpholino-1,7-naphthyridine-3-carboxamide], the concentration giving a half-maximal response (EC50) with D. immitis microfilariae is less than 0.1 µg/mL; in the assay with H. contortus larvae, less than 1 µg/mL.
In the same order, the values of `O=C(NN1CCOc2ccccc21)c1cnc2c(-c3cc(Cl)nc(Cl)c3)cccc2c1N1CCOCC1` [Example 5.12, 8-(2,6-dichloro-4-pyridyl)-N-(2,3-dihydro-1,4-benzoxazin-4-yl)-4-morpholino-quinoline-3-carboxamide] are less than 0.1 µg/mL and less than 1 µg/mL.
The corresponding values for `O=C(NN1CCOc2ccccc21)c1cnc2c(-c3cc(F)cc(F)c3)c(F)ccc2c1N1CCOCC1` [Example 5.8, 8-(3,5-difluorophenyl)-N-(2,3-dihydro-1,4-benzoxazin-4-yl)-7-fluoro-4-morpholino-quinoline-3-carboxamide] are less than 0.1 µg/mL and less than 1 µg/mL.
In the same order, the values of `O=C(NN1CCOc2ccccc21)c1cnc2c(-c3cc(Cl)cc(Cl)c3F)cccc2c1N1CCOCC1` [Example 5.13, 8-(3,5-dichloro-2-fluoro-phenyl)-N-(2,3-dihydro-1,4-benzoxazin-4-yl)-4-morpholino-quinoline-3-carboxamide] are less than 0.1 µg/mL and less than 1 µg/mL.

The values are drawn from patent US12448391B2, “Bicyclic derivatives for treating endoparasites” (Elanco Tiergesundheit AG, priority 2019, dated 2025).
